Assay results: patent US20190083462A1, “PREVENTION OF NSAID ENTEROPATHY WITH MICROBIOTA-DERIVED TRYPTOPHAN-METABOLITE” (THE TEXAS A&M UNIVERSITY SYSTEM, priority 2016, published 2019)

Tested on: fecal tryptophan metabolites
Assay: Fecal tryptophan metabolites by LC-MS
Assay type: in vivo, mice
Conditions: for Magnitude of change in fecal concentration between Days 0 and 7: group effect ↑
Description: Eight- to 10-week-old specific-pathogen-free C57BL/6J mice were purchased and allowed to acclimate for 2 weeks. Mice were fed standardized laboratory rodent diet and sterile water ad libitum. Mice were randomly divided into the following 4 groups (n=5 mice/group): 1) NSAID (indomethacin); 2) indole; 3) NSAID+indole; and, 4) untreated controls. Mice were then rehoused on the basis of treatment group assignment, with 5 animals/group-cage. To induce NSAID enteropathy, mice in group 1 were gavaged once daily with indomethacin (5 mg/kg; for 7 days; Sigma Aldrich, St. Louis, Mo.) dissolved in dimethylysulfoxide (DMSO) (Sigma Aldrich, St. Louis, Mo.) and further diluted in phosphate buffered saline (PBS). Mice in group 2 received indole by gavage (20 mg/kg; once daily for 7 days; Sigma Aldrich, St. Louis, Mo.) dissolved in sterile water warmed to 55° C. Mice in group 3 received indole co-administered with indomethacin by gavage at the dosages described above. All mice were gavaged with equal volumes (200 μL) and equal concentrations of DMSO (0.001%).
Feces were collected daily by placing individual animals in sterile plastic cups that were RNase- and DNase-free until they passed feces. The mice were immediately returned to their home cages and the feces immediately flash frozen at −80° C. All animals were euthanized via CO2 asphyxiation on day 8 (i.e., after 7 days of treatment). The small intestine was harvested, opened longitudinally, rinsed with ice-cold PBS, and the distal ⅓ of the intestinal mucosa was scraped for tissue gene expression analysis. The remaining small intestine was fixed in 4% paraformaldehyde, Swiss-rolled, paraffin-embedded, and stained with hematoxylin and eosin. The spleen and mesenteric lymph nodes (MLN) were harvested, and immediately placed in ice cold RPMI-1640-c+10% fetal calf serum (FCS: Life Technologies, Carlsbad, Calif.), homogenized, and prepared as a single cell suspension for flow cytometric analysis as previously described (Wang N, Strugnell R, Wijburg O, Brodnicki T. Measuring bacterial load and immune responses in mice infected with Listeria monocytogenes. Journal of Visualized Experiments: JoVE 2011).
Metabolites from the fecal contents were extracted using a solvent-based method as previously described (Sridharan G V, Choi K, Klemashevich C, Wu C, Prabakaran D, Pan L B, Steinmeyer S, Mueller C, Yousofshahi M, Alaniz R C, et al. Prediction and quantification of bioactive microbiota metabolites in the mouse gut. Nature Communications 2014; 5:5492). Briefly, fecal pellets were homogenized using a homogenizer (Omni International) with equal volume of cold methanol and half volume of chloroform. The samples were then centrifuged at 10,000 g at 4° C. (Thermo Fisher Scientific) for 10 min. Supernatant was passed through a 70-μm sterile nylon cell strainer (Falcon) and 0.6 ml of ice cold water was added. The samples were vortex and centrifuged again at 10,000 g for 5 minutes. The upper phase and lower phase were collected and 400 μl of upper phase was dried to a pellet using a vacufuge (Eppendorf, Hauppauge, N.Y.), and then reconstituted in 50 μl of methanol/water (1:1, v/v). The samples were stored at −80° C. until analysis. Tryptophan metabolites in the samples were detected and quantified on a triple quadrupole linear ion trap mass spectrometer (3200 QTRAP, AB SCIEX, Foster City, Calif.) coupled to a binary pump HPLC (Prominence LC-20, Shimazu, Concord, Ontario, Canada).

COc1ccc2c(c1)c(CC(=O)O)c(C)n2C(=O)c1ccc(Cl)cc1 [NSAID, indomethacin]
Magnitude of change in fecal concentration between Days 0 and 7 (5-Hydroxyindole): 27.2 | Magnitude of change in fecal concentration between Days 0 and 7 (5-Hydroxytryptamine): 13.9 | Magnitude of change in fecal concentration between Days 0 and 7 (Indole): 6.7 | Magnitude of change in fecal concentration between Days 0 and 7 (Serotonin): 1.6 | Magnitude of change in fecal concentration between Days 0 and 7 (Tyramine): 6.7 | fecal indole concentrations relative to controls (feces): significantly more indole | tyramine fecal concentration by treatment group (feces): significant increase
